Assay results taken from article PMC8413292, “Small-molecule polymerase inhibitor protects non-human primates from measles and reduces shedding” (Nature Communications, 2021).
“And” between values parts separate entries of the source, which are not always exact repeats. Equal values may be shown once.

Test system: MV/FrankfurtMain.DEU/17.11 (genotype D8)
Test: White blood cell counts from whole blood
Type: in vivo, squirrel monkeys (Saimiri sciureus)
Details: for Cells/ml, white blood cells / Counted Cells (Total), white blood cells / Cells [10^3/mm^3], white blood cells: individual animals
Experimental: White blood cell counts, viral load quantification in PBMCs, and quantification of neutralizing antibody titers were performed as follows: for white blood cell counts, blood was diluted 1:100 in 3% acetic acid and cells were counted using a Neubauer chamber. For viral load quantification in PBMCs, blood was centrifuged at 3000 rpm for 15 min and serum was frozen at −20 °C until further use. Red blood cell lysis was performed and the remaining PBMCs were counted using a Neubauer chamber. Viral titers in PBMCs were quantified in quadruplicates using limited dilution method and calculated as TCID50/10^6 PBMCs. Neutralizing antibody titers were quantified by incubating MeV with 2-fold serial dilutions of the respective serum for 20 min at room temperature in quadruplicates. Vero/hSLAM cells were added and incubated for 3 days at 37 °C. Neutralizing antibody titers are expressed as the reciprocal of the highest serum dilution showing no signs of infection. For virus titration from throat swabs, swabs were placed in 150 μl DMEM with 3% penicillin/streptomycin and the titer was quantified by limited dilution method.

`Cn1nc(C(F)(F)F)cc1C(=O)Nc1ccc(S(=O)(=O)N2CCCC[C@H]2CCN2CCOCC2)cc1` [ERDRP-0519] was tested. Which “Cells/ml, white blood cells” value (prophylactic group, 21 dpi) did it give?
The value was 3.50E+06 Cells/ml and 7.75E+06 Cells/ml and 2.25E+06 Cells/ml (2×) and 5.00E+06 Cells/ml and 5.25E+06 Cells/ml.

And the “Counted Cells (Total), white blood cells” value (prophylactic group, 21 dpi)?
Its value is 21 and 14 and 31 and 9 (2×) and 20.

What about the “WBC group mean (Mean 2)” value (prophylactic group, Row 1 (0 dpi)) of the same compound?
Its value is 6.11 10^3cells/mm^3.

And the “WBC group mean (Mean 2)” value (prophylactic group, Row 2 (3 dpi))?
Its value is 4.958 10^3cells/mm^3.

What about the “WBC group mean (Mean 2)” value (prophylactic group, Row 3 (7 dpi)) of the same compound?
The value was 5.875 10^3cells/mm^3.

What about the “WBC group mean (Mean 2)” value (prophylactic group, Row 4 (10 dpi)) of the same compound?
Its value is 4.125 10^3cells/mm^3.

And the “WBC group mean (Mean 2)” value (prophylactic group, Row 5 (14 dpi))?
Its value is 4.25 10^3cells/mm^3.

And the “WBC group mean (Mean 2)” value (prophylactic group, Row 6 (17 dpi))?
Its value is 4.583 10^3cells/mm^3.

And the “WBC group mean (Mean 2)” value (prophylactic group, Row 7 (21 dpi))?
Its value is 4.333 10^3cells/mm^3.

What about the “Cells [10^3/mm^3], white blood cells” value (therapeutic (d3) group, 0 dpi) of the same compound?
The value was 4.25 10^3/mm^3 and 7.75 10^3/mm^3 and 4.75 10^3/mm^3 and 5.75 10^3/mm^3 and 5 10^3/mm^3.

What about the “Cells/ml, white blood cells” value (therapeutic (d3) group, 0 dpi) of the same compound?
Its value is 7.75E+06 Cells/ml and 4.75E+06 Cells/ml and 5.75E+06 Cells/ml and 5.00E+06 Cells/ml and 4.25E+06 Cells/ml.

What about the “Counted Cells (Total), white blood cells” value (therapeutic (d3) group, 0 dpi) of the same compound?
The value was 17 and 31 and 19 and 23 and 20.

What about the “Cells [10^3/mm^3], white blood cells” value (therapeutic (d3) group, 3 dpi) of the same compound?
The value was 8.75 10^3/mm^3 and 8.25 10^3/mm^3 (2×) and 6.5 10^3/mm^3 and 5 10^3/mm^3 and 4.5 10^3/mm^3.

What about the “Cells/ml, white blood cells” value (therapeutic (d3) group, 3 dpi) of the same compound?
The value was 8.25E+06 Cells/ml (2×) and 6.50E+06 Cells/ml and 5.00E+06 Cells/ml and 4.50E+06 Cells/ml and 8.75E+06 Cells/ml.

And the “Counted Cells (Total), white blood cells” value (therapeutic (d3) group, 3 dpi)?
The value was 35 and 33 (2×) and 26 and 20 and 18.

And the “Cells [10^3/mm^3], white blood cells” value (therapeutic (d3) group, 7 dpi)?
Its value is 3.25 10^3/mm^3 and 8.25 10^3/mm^3 and 4.75 10^3/mm^3 and 3.75 10^3/mm^3 and 7.25 10^3/mm^3 and 2.25 10^3/mm^3.

What about the “Cells/ml, white blood cells” value (therapeutic (d3) group, 7 dpi) of the same compound?
Its value is 8.25E+06 Cells/ml and 4.75E+06 Cells/ml and 3.75E+06 Cells/ml and 7.25E+06 Cells/ml and 2.25E+06 Cells/ml and 3.25E+06 Cells/ml.

What about the “Counted Cells (Total), white blood cells” value (therapeutic (d3) group, 7 dpi) of the same compound?
The value was 13 and 33 and 19 and 15 and 29 and 9.

And the “Cells [10^3/mm^3], white blood cells” value (therapeutic (d3) group, 10 dpi)?
The value was 1.75 10^3/mm^3 and 2.75 10^3/mm^3 and 3 10^3/mm^3 and 3.75 10^3/mm^3 and 4.5 10^3/mm^3 and 4.25 10^3/mm^3.

And the “Cells/ml, white blood cells” value (therapeutic (d3) group, 10 dpi)?
The value was 2.75E+06 Cells/ml and 3.00E+06 Cells/ml and 3.75E+06 Cells/ml and 4.50E+06 Cells/ml and 4.25E+06 Cells/ml and 1.75E+06 Cells/ml.

What about the “Counted Cells (Total), white blood cells” value (therapeutic (d3) group, 10 dpi) of the same compound?
Its value is 7 and 11 and 12 and 15 and 18 and 17.

What about the “Cells [10^3/mm^3], white blood cells” value (therapeutic (d3) group, 14 dpi) of the same compound?
Its value is 6 10^3/mm^3 and 7.5 10^3/mm^3 and 5.5 10^3/mm^3 and 10.75 10^3/mm^3 and 12.75 10^3/mm^3 and 3.25 10^3/mm^3.

And the “Cells/ml, white blood cells” value (therapeutic (d3) group, 14 dpi)?
Its value is 7.50E+06 Cells/ml and 5.50E+06 Cells/ml and 1.08E+07 Cells/ml and 1.28E+07 Cells/ml and 3.25E+06 Cells/ml and 6.00E+06 Cells/ml.

And the “Counted Cells (Total), white blood cells” value (therapeutic (d3) group, 14 dpi)?
Its value is 24 and 30 and 22 and 43 and 51 and 13.

What about the “Cells [10^3/mm^3], white blood cells” value (therapeutic (d3) group, 17 dpi) of the same compound?
Its value is 4.25 10^3/mm^3 and 5 10^3/mm^3 and 4.75 10^3/mm^3 and 4.5 10^3/mm^3 and 3.75 10^3/mm^3.

And the “Cells/ml, white blood cells” value (therapeutic (d3) group, 17 dpi)?
Its value is 5.00E+06 Cells/ml and 4.75E+06 Cells/ml and 4.50E+06 Cells/ml and 3.75E+06 Cells/ml and 4.25E+06 Cells/ml.

What about the “Counted Cells (Total), white blood cells” value (therapeutic (d3) group, 17 dpi) of the same compound?
Its value is 17 and 20 and 19 and 18 and 15.

And the “Cells [10^3/mm^3], white blood cells” value (therapeutic (d3) group, 21 dpi)?
The value was 4.5 10^3/mm^3 and 3.5 10^3/mm^3 and 10.25 10^3/mm^3 and 7.5 10^3/mm^3 and 2.25 10^3/mm^3.

And the “Cells/ml, white blood cells” value (therapeutic (d3) group, 21 dpi)?
The value was 3.50E+06 Cells/ml and 1.02E+07 Cells/ml and 7.50E+06 Cells/ml and 2.25E+06 Cells/ml and 4.50E+06 Cells/ml.

What about the “Counted Cells (Total), white blood cells” value (therapeutic (d3) group, 21 dpi) of the same compound?
The value was 18 and 14 and 41 and 30 and 9.

And the “WBC group mean (Mean 2)” value (therapeutic (d3) group, Row 1 (0 dpi))?
Its value is 5.5 10^3cells/mm^3.

And the “WBC group mean (Mean 2)” value (therapeutic (d3) group, Row 2 (3 dpi))?
The value was 6.875 10^3cells/mm^3.

And the “WBC group mean (Mean 2)” value (therapeutic (d3) group, Row 3 (7 dpi))?
The value was 4.917 10^3cells/mm^3.

What about the “WBC group mean (Mean 2)” value (therapeutic (d3) group, Row 4 (10 dpi)) of the same compound?
The value was 3.333 10^3cells/mm^3.

And the “WBC group mean (Mean 2)” value (therapeutic (d3) group, Row 5 (14 dpi))?
The value was 7.642 10^3cells/mm^3.

What about the “WBC group mean (Mean 2)” value (therapeutic (d3) group, Row 6 (17 dpi)) of the same compound?
Its value is 4.45 10^3cells/mm^3.

What about the “WBC group mean (Mean 2)” value (therapeutic (d3) group, Row 7 (21 dpi)) of the same compound?
Its value is 5.61 10^3cells/mm^3.

What about the “Cells [10^3/mm^3], white blood cells” value (therapeutic (d7) group, 0 dpi) of the same compound?
The value was 2.75 10^3/mm^3 and 3 10^3/mm^3 (2×) and 7.25 10^3/mm^3 and 5.25 10^3/mm^3.

And the “Cells/ml, white blood cells” value (therapeutic (d7) group, 0 dpi)?
Its value is 3.00E+06 Cells/ml (2×) and 7.25E+06 Cells/ml and 5.25E+06 Cells/ml and 2.75E+06 Cells/ml.

What about the “Counted Cells (Total), white blood cells” value (therapeutic (d7) group, 0 dpi) of the same compound?
The value was 11 and 12 (2×) and 29 and 21.

What about the “Cells [10^3/mm^3], white blood cells” value (therapeutic (d7) group, 3 dpi) of the same compound?
Its value is 7.5 10^3/mm^3 and 12.5 10^3/mm^3 and 6.5 10^3/mm^3 and 7.75 10^3/mm^3 (2×) and 8.75 10^3/mm^3.

And the “Cells/ml, white blood cells” value (therapeutic (d7) group, 3 dpi)?
Its value is 1.25E+07 Cells/ml and 6.50E+06 Cells/ml and 7.75E+06 Cells/ml (2×) and 8.75E+06 Cells/ml and 7.50E+06 Cells/ml.

And the “Counted Cells (Total), white blood cells” value (therapeutic (d7) group, 3 dpi)?
Its value is 30 and 50 and 26 and 31 (2×) and 35.

What about the “Cells [10^3/mm^3], white blood cells” value (therapeutic (d7) group, 7 dpi) of the same compound?
Its value is 4 10^3/mm^3 (3×) and 5 10^3/mm^3 and 3 10^3/mm^3 and 3.25 10^3/mm^3.

What about the “Cells/ml, white blood cells” value (therapeutic (d7) group, 7 dpi) of the same compound?
The value was 4.00E+06 Cells/ml (3×) and 5.00E+06 Cells/ml and 3.00E+06 Cells/ml and 3.25E+06 Cells/ml.

And the “Counted Cells (Total), white blood cells” value (therapeutic (d7) group, 7 dpi)?
The value was 16 (3×) and 20 and 12 and 13.

What about the “Cells [10^3/mm^3], white blood cells” value (therapeutic (d7) group, 10 dpi) of the same compound?
The value was 3 10^3/mm^3 and 2.75 10^3/mm^3 and 2.5 10^3/mm^3.

What about the “Cells/ml, white blood cells” value (therapeutic (d7) group, 10 dpi) of the same compound?
The value was 2.75E+06 Cells/ml and 2.50E+06 Cells/ml and 3.00E+06 Cells/ml.

And the “Counted Cells (Total), white blood cells” value (therapeutic (d7) group, 10 dpi)?
Its value is 12 and 11 and 10.

What about the “WBC group mean (Mean 2)” value (therapeutic (d7) group, Row 1 (0 dpi)) of the same compound?
The value was 4.25 10^3cells/mm^3.

And the “WBC group mean (Mean 2)” value (therapeutic (d7) group, Row 2 (3 dpi))?
Its value is 8.458 10^3cells/mm^3.

What about the “WBC group mean (Mean 2)” value (therapeutic (d7) group, Row 3 (7 dpi)) of the same compound?
Its value is 3.875 10^3cells/mm^3.

And the “WBC group mean (Mean 2)” value (therapeutic (d7) group, Row 4 (10 dpi))?
Its value is 2.708 10^3cells/mm^3.

What about the “WBC group mean (Mean 2)” value (therapeutic (d7) group, Row 5 (14 dpi)) of the same compound?
Its value is 3.125 10^3cells/mm^3.

What about the “WBC group mean (Mean 2)” value (therapeutic (d7) group, Row 6 (17 dpi)) of the same compound?
Its value is 4.25 10^3cells/mm^3.

And the “WBC group mean (Mean 2)” value (therapeutic (d7) group, Row 7 (21 dpi))?
Its value is 5.083 10^3cells/mm^3.
